# Test results taken from US20250380701A1, “HERBICIDAL COMBINATIONS AND A METHOD FOR CONTROLLING UNDESIRED VEGETATION” (UPL Mauritius Limited, priority 2022, published 2025).
# Tested on: weedy Glycine max
# Experiment: Post-emergence herbicidal activity trial, efficacy on weedy Glycine max (Colby evaluation)
# Assay type: in vivo
# Procedure: The following products were used for testing the weed control efficacy of present herbicidal combinations.
# Methodology: Trials were carried out to evaluate the efficacy of the combination of L-glufosinate ammonium (glufosinate-P-ammonium) and the additional herbicides on weedy Glycine max.
# The soil used was sandy clay loam-sand: 68.0%; silt: 8.0%; clay: 24.0%.
# All treatments were in 3 replications per treatment with a spray volume of about 150 L/ha.
# The expected efficacy of a combination of L-glufosinate and the other herbicides was calculated using the well-established Colby method. Any difference between the observed and “expected” efficacy could be attributed to synergy between the two compounds.
# In the Colby method, the expected (or predicted) response of a combination of herbicides is calculated by taking the product of the observed response for each individual component of the combination when applied alone, divided by 100, and subtracting this value from the sum of the observed response for each component when applied alone. An unexpected enhancement in efficacy of the combination is then determined by comparing the observed response of the combination to the expected (or predicted) response as calculated from the observed response of each individual component alone. If the observed response of the combination is greater than the expected (or predicted) response, or stated conversely, if the difference between the observed and expected response is greater than zero, then the combination is said to be synergistic or unexpectedly effective (Colby, S. R., Weeds, 1967(15), p. 20-22). The Colby method requires only a single dose of each herbicide applied alone and the mixture of both doses. The formula used to calculate the expected efficacy (EE) which was compared with the observed efficacy (OE) to determine the efficacy of the present disclosure is explained hereinbelow:
# The expected efficacy for a combination of two active ingredients is as follows:
# wherein, • A=Observed efficacy of active ingredient A at the same concentration as used in the mixture. • B=Observed efficacy of the active ingredient B at the same concentration as used in the mixture. • C=Observed efficacy of the active ingredient C at the same concentration as used in the mixture.
# Experiments were conducted to assess the efficacy of the herbicidal combination comprising L-glufosinate ammonium and quizalofop-ethyl to control weedy Glycine max.
# The percentage efficacy was calculated after 3, 28 and 35 days of applications (DAA). The target weed was Glycine max, and the concentration of the herbicide and the results are recorded in Table 2.
# Experiments were conducted to assess the efficacy of the herbicidal combination comprising L-glufosinate ammonium and quizalofop-p-tefuryl to control the weedy Glycine max
# The percentage efficacy was calculated after 3, 28 and 35 days of applications (DAA). The target weed was weedy Glycine max, and the concentration of the herbicide and the results are recorded in Table 3.
compound,measurement,setting,value
CP(=O)(O)CC[C@H](N)C(=O)O.N [L-glufosinate ammonium],Observed efficacy (%) of L-glufosinate ammonium (150 g a.i./ha),"Example 1 (Table 2), 3 DAA",50%
same,Observed efficacy (%) of L-glufosinate ammonium (150 g a.i./ha),"Example 1 (Table 2), 28 DAA",40%
same,Observed efficacy (%) of L-glufosinate ammonium (150 g a.i./ha),"Example 1 (Table 2), 35 DAA",40%
same,Observed efficacy (%) of L-glufosinate ammonium (150 g a.i./ha),"Example 2 (Table 3), 3 DAA",50%
same,Observed efficacy (%) of L-glufosinate ammonium (150 g a.i./ha),"Example 2 (Table 3), 28 DAA",60%
same,Observed efficacy (%) of L-glufosinate ammonium (150 g a.i./ha),"Example 2 (Table 3), 35 DAA",55%
"CCOC(=O)C(C)Oc1ccc(Oc2cnc3cc(Cl)ccc3n2)cc1 (stereo not drawn) [quizalofop-ethyl, Quizalofop-ethyl]",Observed efficacy (%) of quizalofop-ethyl (25 g a.i./ha),"Example 1 (Table 2), 3 DAA",0%
same,Observed efficacy (%) of quizalofop-ethyl (25 g a.i./ha),"Example 1 (Table 2), 28 DAA",0%
same,Observed efficacy (%) of quizalofop-ethyl (25 g a.i./ha),"Example 1 (Table 2), 35 DAA",0%
"C[C@@H](Oc1ccc(Oc2cnc3cc(Cl)ccc3n2)cc1)C(=O)OCC1CCCO1 (stereo partly drawn) [quizalofop-p-tefuryl, Quizalofop-p-tefuryl]",Observed efficacy (%) of quizalofop-p-tefuryl (25 g a.i./ha),"Example 2 (Table 3), 3 DAA",0%
same,Observed efficacy (%) of quizalofop-p-tefuryl (25 g a.i./ha),"Example 2 (Table 3), 28 DAA",0%
same,Observed efficacy (%) of quizalofop-p-tefuryl (25 g a.i./ha),"Example 2 (Table 3), 35 DAA",0%
